Reference: ChEMBL document CHEMBL1201862, “PubChem BioAssay data set” (2004)
The source made the active and inactive calls.

Experiments:
[1] = biological target: Protein Wnt-3a (Mus musculus, UniProt P27467); assay: antagonism of Wnt3a pathway luciferase reporter – Wnt-LIGHT cells, luminescence, selectivity assay for Gli-SUFU antagonist project, dose response (AID 651570); type: functional; conditions: read-out: IC50_Mean;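 note: Wnt-LIGHT reporter cells stimulated with conditioned medium from Wnt3a-producing cells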
[2] = reduction of Shn3 3'UTR-driven luciferase in osteoblasts – cell-based, Clone20 osteoblasts, firefly luciferase, cherry-picked, dose response (AID 624132); type: functional;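 note: firefly luciferase luminescence from reporter carrying the Shn3 3'UTR in osteoblasts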
[3] = system: INS1; assay: INS-1E survival protection against cytokine death – cell-based, luminescence, retest, dose response (AID 449756); type: functional; conditions: Rattus norvegicus;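 note: cell death triggered by IL-1 beta plus TNF-alpha plus IFN-gamma mixture; protective hits raise ATP signal compared with cytokine alone wells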
[4] = biological target: T1, High affinity choline transporter 1 (Homo sapiens, UniProt Q9GZV3); assay: human choline transporter blockers, potency – cell-based, 5-point CRC, membrane potential dye, dose response (AID 504840); type: functional
T1 sequence (Q9GZV3 whole entry): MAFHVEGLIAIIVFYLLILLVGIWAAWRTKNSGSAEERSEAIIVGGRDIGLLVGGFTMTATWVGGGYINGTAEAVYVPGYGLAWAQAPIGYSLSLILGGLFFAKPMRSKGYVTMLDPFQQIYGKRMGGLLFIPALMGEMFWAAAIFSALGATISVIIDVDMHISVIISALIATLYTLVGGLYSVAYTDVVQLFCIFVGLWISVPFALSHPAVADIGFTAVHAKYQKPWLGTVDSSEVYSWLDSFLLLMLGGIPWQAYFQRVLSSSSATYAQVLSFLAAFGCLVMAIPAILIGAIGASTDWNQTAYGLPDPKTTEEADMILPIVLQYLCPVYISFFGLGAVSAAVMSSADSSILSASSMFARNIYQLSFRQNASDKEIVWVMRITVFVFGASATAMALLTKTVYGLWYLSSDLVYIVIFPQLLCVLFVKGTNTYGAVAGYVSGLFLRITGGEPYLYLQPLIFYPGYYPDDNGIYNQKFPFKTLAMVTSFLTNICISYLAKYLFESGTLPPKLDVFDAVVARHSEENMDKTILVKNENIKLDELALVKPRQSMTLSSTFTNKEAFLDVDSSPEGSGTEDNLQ

[5] = system: HEK293; assay: EBV LMP1 TES2 canonical NF-kB signalling blockers – cell-based, HEK293, luciferase, cherry-pick, dose response (AID 588343); type: functional; conditions: Homo sapiens
[6] = non-specific 3'UTR reporter inhibition in Clone20-Shn3RL – cell-based, Renilla luciferase, cherry-picked, counter-screen for Shn3 inhibitor project, dose response (AID 624133); type: functional
[7] = loss of viability in HepG2 cells – cell-based, CellTiter-Glo, cherry-picked, cytotoxicity control for Shn3 inhibitor project, dose response (AID 624134); type: functional
[8] = biological target: T2, Endoribonuclease toxin MazF (Escherichia coli K-12, UniProt P0AE70); assay: substrate-only fluorescence increase artefacts – biochemical, single-stranded RNase substrate, counter-screen for MazEF activator project, dose response (AID 588502); type: functional
T2 sequence (P0AE70 whole entry): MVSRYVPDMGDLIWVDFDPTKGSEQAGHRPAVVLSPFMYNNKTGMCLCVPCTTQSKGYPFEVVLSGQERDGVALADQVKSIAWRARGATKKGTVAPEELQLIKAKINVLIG

[9] = biological target: T2, Endoribonuclease toxin MazF; assay: activation of MazEF endoribonuclease cleavage – biochemical, fluorescence, single-stranded RNA substrate, uHTS hits, dose response (AID 588481); type: functional
[10] = intracellular Trypanosoma cruzi inhibitors in host cells – cell-based, plate reader, cherry-pick samples, set 3, dose response (AID 651818); type: functional;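 note: compounds incubated with infected cells for about four days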
[11] = biological target: Prothrombin (Bos taurus, UniProt P00735); assay: thrombin protease inhibitors – biochemical, fluorescence polarization, uHTS hits, dose response (AID 602369); type: functional
[12] = biological target: 72 kDa type IV collagenase (Homo sapiens, UniProt P08253); assay: Dose Response validation of uHTS RPN11 inhibitor hits using a MMP-2 Fluorescence assay.; type: functional
[13] = biological target: 26S proteasome non-ATPase regulatory subunit 14 (Homo sapiens, UniProt O00487); assay: inhibition of proteasome subunit RPN11 – biochemical, fluorescence polarization, uHTS hits, confirmation (AID 602368); type: functional
[14] = biological target: T1, High affinity choline transporter 1; assay: human choline transporter blockers, potency – cell-based, 10-point CRC, membrane potential dye, dose response (AID 588401); type: functional;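 note: membrane potential dye fluorescence of choline-evoked depolarization via CHT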
[15] = biological target: T3, Melanocortin receptor 4 (Homo sapiens, UniProt P32245); type: functional, cell-based;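 note: Cell-based assay with luminescence read-out, confirmatory dose-response testing for agonist activity of biased ligands at MC4R; human U2OS cells with tagged receptor and beta-arrestin; potency of agonists that increase receptor coupling to beta-arrestin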
[16] = biological target: T4, Mitochondrial peptide methionine sulfoxide reductase (Bos taurus, UniProt P54149); type: functional;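 note: absorbance read-out, biochemical high-throughput dose-response screen for MsrA inhibitors, confirmatory; recombinant bovine MsrA coupled to E. coli TrxB with NADPH and selenocystamine; potency is for inhibitors of MsrA activity on DMSO substrate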
T4 sequence (P54149 whole entry): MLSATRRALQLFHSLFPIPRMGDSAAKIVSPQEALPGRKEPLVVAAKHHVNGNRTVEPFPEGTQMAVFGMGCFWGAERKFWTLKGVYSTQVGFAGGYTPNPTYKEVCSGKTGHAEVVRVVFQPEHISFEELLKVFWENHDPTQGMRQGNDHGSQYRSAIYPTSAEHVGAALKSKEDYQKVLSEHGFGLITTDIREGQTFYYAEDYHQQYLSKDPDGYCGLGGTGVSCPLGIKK

[17] = biological target: T5, Protein RecA (Mycobacterium tuberculosis, UniProt P9WHJ3); assay: Fluorescence Cell-Free Homogeneous Dose Retest to Identify Inhibitors of RecA-Intein Splicing Activity. [Related pubchem assays (depositor defined):AID2097, AID2223, AID489010, AID492950]; type: functional
T5 sequence (P9WHJ3 whole entry): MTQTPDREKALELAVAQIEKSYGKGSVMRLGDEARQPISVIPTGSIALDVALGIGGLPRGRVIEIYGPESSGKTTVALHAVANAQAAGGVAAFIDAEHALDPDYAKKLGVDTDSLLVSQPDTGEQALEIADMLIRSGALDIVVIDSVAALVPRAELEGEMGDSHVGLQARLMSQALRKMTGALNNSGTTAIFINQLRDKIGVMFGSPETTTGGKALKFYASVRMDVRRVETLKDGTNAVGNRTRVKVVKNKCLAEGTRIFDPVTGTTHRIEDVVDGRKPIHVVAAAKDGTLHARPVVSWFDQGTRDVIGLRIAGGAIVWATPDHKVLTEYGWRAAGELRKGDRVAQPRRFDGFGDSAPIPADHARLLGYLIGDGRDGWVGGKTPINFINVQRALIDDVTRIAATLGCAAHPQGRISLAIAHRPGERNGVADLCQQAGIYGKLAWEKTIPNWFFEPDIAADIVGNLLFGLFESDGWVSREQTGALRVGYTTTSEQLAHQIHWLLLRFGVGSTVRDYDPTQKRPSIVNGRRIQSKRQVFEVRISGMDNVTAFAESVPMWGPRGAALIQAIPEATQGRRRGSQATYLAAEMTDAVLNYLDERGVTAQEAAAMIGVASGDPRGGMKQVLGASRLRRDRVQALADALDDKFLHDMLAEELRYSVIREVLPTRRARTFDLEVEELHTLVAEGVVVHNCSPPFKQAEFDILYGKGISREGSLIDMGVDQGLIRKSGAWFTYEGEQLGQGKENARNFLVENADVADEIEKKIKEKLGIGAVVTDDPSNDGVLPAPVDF

[18] = biological target: T6, Replicative DNA helicase DnaB (Mycobacterium tuberculosis, UniProt P9WMR3); assay: DnaB intein splicing inhibitors, dose response, biochemical, cell-free fluorescence (AID 449749); type: functional
T6 sequence (P9WMR3 whole entry): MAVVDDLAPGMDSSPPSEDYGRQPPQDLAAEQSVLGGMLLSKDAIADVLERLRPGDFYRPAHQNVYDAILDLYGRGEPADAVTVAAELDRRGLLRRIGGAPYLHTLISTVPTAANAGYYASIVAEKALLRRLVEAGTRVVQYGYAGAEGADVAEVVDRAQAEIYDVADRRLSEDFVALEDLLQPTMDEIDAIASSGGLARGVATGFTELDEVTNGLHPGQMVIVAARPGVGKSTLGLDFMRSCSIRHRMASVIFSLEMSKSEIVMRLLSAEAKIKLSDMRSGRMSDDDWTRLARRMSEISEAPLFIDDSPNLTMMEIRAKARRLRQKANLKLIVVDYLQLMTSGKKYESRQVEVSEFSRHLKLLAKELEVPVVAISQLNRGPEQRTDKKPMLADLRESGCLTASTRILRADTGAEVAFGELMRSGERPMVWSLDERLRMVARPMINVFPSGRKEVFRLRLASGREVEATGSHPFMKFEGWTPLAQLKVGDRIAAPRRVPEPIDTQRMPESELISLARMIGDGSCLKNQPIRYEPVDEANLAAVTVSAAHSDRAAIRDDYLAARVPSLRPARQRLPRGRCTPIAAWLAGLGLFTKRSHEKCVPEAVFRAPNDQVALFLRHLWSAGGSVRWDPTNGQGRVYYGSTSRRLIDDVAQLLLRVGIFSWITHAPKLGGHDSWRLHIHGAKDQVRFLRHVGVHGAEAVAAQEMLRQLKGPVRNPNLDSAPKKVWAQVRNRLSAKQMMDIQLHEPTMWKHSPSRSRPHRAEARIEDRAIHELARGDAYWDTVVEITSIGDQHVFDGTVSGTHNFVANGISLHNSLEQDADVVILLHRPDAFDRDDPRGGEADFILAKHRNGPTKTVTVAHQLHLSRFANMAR

[19] = Trypanosoma cruzi growth suppression in host cells – NIH3T3 host cells, beta-gal luminescence, confirmation (AID 2044); type: functional, cell-based;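 note: intracellular parasites grown in NIH/3T3 mouse fibroblasts as host cells; luminescent beta-galactosidase reporter signal from transgenic T. cruzi replicating inside host cells; inhibitors lower the luminescence signal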
[20] = NIH3T3 cell viability loss – ATP luminescence, mouse fibroblasts, counter-screen, dose response (AID 2010); type: functional, cell-based;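 note: cells exposed to compound for about 90 hours before reading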
[21] = cAMP pathway inhibition in counterscreen cell line – TR-FRET cAMP detection, counter-screen for MC4R biased antagonist project, dose response (AID 602305); type: functional, cell-based;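 note: U2OS cells stimulated with forskolin near its EC80 as the cAMP inducer; potency is for inhibition of forskolin-stimulated cAMP signaling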
[22] = biological target: T3, Melanocortin receptor 4; assay: inhibitors of MC4R cAMP signaling – cell-based, TR-FRET, biased antagonists, dose response (AID 602298); type: functional;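 note: antagonist potency against agonist-stimulated cAMP production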
[23] = biological target: T7, Carboxy-terminal domain RNA polymerase II polypeptide A small phosphatase 1 (Homo sapiens, UniProt Q9GZU7); assay: CTDSP1 inhibitors, concentration-response, biochemical, absorbance readout, ultra-high-throughput screen actives (AID 540297); type: functional
T7 sequence (Q9GZU7 whole entry): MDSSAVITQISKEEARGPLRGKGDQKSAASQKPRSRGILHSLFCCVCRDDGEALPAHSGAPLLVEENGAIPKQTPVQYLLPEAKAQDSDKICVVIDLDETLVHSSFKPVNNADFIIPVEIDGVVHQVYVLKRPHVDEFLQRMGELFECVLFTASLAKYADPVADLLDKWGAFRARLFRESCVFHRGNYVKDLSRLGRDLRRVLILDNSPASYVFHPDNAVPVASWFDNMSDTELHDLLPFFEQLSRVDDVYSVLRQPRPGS

Chain of 26S proteasome non-ATPase regulatory subunit 14 (O00487 whole entry): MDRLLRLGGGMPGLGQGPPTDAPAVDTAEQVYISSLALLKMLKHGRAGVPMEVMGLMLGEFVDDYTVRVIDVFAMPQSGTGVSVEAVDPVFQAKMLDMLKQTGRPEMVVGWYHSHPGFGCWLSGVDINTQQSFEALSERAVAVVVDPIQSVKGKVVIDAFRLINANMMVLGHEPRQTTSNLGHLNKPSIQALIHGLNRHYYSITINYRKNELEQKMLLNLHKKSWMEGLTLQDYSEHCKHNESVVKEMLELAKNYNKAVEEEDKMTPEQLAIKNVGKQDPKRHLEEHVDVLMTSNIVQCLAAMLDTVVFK
Chain of 72 kDa type IV collagenase (P08253 whole entry): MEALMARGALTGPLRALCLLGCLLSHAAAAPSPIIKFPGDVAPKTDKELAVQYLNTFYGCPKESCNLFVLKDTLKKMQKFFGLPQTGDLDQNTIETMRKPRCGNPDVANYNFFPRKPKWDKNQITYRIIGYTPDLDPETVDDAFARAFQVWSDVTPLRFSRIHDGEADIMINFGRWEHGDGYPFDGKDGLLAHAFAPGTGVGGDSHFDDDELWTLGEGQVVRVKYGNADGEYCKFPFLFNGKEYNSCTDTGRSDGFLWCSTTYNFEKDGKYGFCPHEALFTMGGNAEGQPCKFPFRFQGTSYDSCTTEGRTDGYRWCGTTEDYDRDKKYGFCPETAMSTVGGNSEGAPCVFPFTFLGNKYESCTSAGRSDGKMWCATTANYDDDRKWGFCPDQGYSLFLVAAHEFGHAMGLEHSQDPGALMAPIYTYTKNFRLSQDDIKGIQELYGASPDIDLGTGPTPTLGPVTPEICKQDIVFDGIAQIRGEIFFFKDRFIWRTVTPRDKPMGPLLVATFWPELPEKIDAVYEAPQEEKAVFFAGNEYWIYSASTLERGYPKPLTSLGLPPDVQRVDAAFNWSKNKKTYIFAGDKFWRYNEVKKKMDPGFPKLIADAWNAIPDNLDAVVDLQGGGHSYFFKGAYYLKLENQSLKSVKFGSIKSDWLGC
T3 sequence (P32245 whole entry): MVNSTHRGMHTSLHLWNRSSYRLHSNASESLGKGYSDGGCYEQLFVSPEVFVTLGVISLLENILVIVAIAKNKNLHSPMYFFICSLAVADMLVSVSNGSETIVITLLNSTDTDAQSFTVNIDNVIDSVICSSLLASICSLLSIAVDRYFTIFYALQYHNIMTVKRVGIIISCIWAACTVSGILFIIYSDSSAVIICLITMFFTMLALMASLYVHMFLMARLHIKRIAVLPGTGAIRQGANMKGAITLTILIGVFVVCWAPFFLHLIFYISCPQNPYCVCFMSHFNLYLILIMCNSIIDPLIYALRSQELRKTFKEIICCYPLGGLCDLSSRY
Chain of Protein Wnt-3a (P27467 whole entry): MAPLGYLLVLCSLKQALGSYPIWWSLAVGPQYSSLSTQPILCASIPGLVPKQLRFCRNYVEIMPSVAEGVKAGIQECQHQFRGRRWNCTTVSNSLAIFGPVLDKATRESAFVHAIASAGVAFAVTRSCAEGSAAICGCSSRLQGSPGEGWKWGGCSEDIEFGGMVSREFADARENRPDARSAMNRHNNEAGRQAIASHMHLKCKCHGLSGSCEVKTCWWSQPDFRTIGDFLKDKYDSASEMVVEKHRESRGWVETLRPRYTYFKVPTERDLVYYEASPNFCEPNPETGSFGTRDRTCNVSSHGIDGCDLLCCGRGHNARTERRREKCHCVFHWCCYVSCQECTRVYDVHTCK

In the case of Cn1c(=O)c2c(nc(NCc3ccco3)n2Cc2ccc(Cl)cc2Cl)n(C)c1=O, the IC50 [1] is reported as 1.94 µM (active).
With CCOC(=O)N1CCC(NC(=O)C2CCCN(Cc3nc(-c4cccc(Cl)c4)oc3C)C2)CC1 (configuration not stated) the AC50 [2] was 9.5 µM (active), the AC50 [3] was 3.71 µM (active) and the IC50 [4] was 6.92 µM (active). The AC50 [5] was 2.51 µM (active), the AC50 [6] was 1.81 µM (active) and the AC50 [7] was 55.4 µM (active).
For Nc1cc(SCc2ccc(Cl)cc2Cl)ncn1, the EC50 [8] was > 99 µM (inactive) and the EC50 [9] was > 99 µM (inactive).
For CC(C)NC(=O)Nc1cccc2c1O[C@H](CN(C)Cc1ccc(C(=O)Nc3ccccc3N)cc1)[C@H](C)CN([C@@H](C)CO)C2=O, the AC50 [10] was 2.95 µM (active).
For COc1ccccc1Cc1c(-c2cccc(Br)c2)nc2ccc(Cl)cn12, the IC50 [11] was 13 µM (active), the IC50 [12] was > 100 µM (inactive) and the IC50 [13] was 8.48 µM (active).
For COc1ccc(Nc2nc3ccc(C)cc3cc2C#N)c(OC)c1, the EC50 [8] was 14.2 µM (active) and the EC50 [9] was 34.1 µM (inactive).
In the case of C[C@]12CCC[C@H](O1)c1c(cc3c(c1O)C(=O)c1c(O)cc(O)cc1C3=O)O2, the IC50 [11] is reported as 4.81 µM (active), the IC50 [12] is reported as 78.4 µM (active) and the IC50 [13] is reported as 2.94 µM (active).
In the case of CCCn1c2ccccc2c2cnn(CC(=O)NCCCN3CCN(c4ccccc4)CC3)c(=O)c21, the IC50 [4] is reported as 2.49 µM (active) and the IC50 [14] is reported as 2.84 µM (active).
In the case of Cc1cc(O)cc(O)c1/C=N/Cc1ccco1, the EC50 [8] is reported as 21.9 µM (inactive) and the EC50 [9] is reported as > 99 µM (inactive).
In the case of CCc1cccc(CC)c1NC(=O)c1cccc(S(=O)(=O)N2CCN(C)CC2)c1, the IC50 [4] is reported as 7.52 µM (active) and the IC50 [14] is reported as 8.43 µM (active).
For O=C1OC(c2ccccc2)(c2ccc(O)cc2)c2ccccc21 (configuration not stated), the EC50 [15] was > 89.2 µM (inactive).
With O=C1OC(c2ccccc2)(c2cc(Br)ccc2O)c2ccccc21 (configuration not stated) the EC50 [15] was > 89.2 µM (inactive).
In the case of C/C(CC(C)C)=N/Nc1ccc([N+](=O)[O-])cc1[N+](=O)[O-], the IC50 [16] is reported as 155 µM (inactive).
With Cc1cc(C)n(-c2ccc(NN=C(C#N)C#N)cc2)n1 the AC50 [5] was 1.82 µM (active), the EC50 [17] was 9.25 µM (active) and the AC50 [18] was 5.45 µM (active).
For CCn1/c(=N\C(=O)CS(=O)(=O)c2ccccc2)sc2cccc(OC)c21, the AC50 [2] was 1.68 µM (active), the IC50 [1] was 1.03 µM (active) and the EC50 [19] was 1.74 µM (active). The AC50 [6] was 1.58 µM (active), the AC50 [7] was > 70 µM (inactive) and the EC50 [20] was > 60 µM (not active).
For C=CCn1/c(=N/C(=O)c2sc3ccccc3c2Cl)sc2cc(S(N)(=O)=O)ccc21, the IC50 [21] was > 64.6 µM (inactive), the IC50 [11] was > 100 µM (inactive) and the IC50 [12] was > 100 µM (inactive). For the same compound, the IC50 [13] was 12.5 µM (active), the IC50 [22] was 30.7 µM (inactive) and the IC50 [23] was 4.39 µM (active).
